Assay results from patent US20100197714A1, “SPIRO-PYRANO-PYRAZOLE DERIVATIVES” (priority 2007, published 2010).
Where two headings read alike, the source gives them in different places.

What was measured:
σ1-receptor = σ1-receptor (Cavia porcellus, UniProt Q60492); experiment: Sigma 1 (Version B) radioligand binding, [3H]-(+)-pentazocine, guinea pig brain preparation; set-up: the σ1-receptor preparation was prepared from guinea pig brain; from tissue; host or cells: guinea pig brain membrane homogenate
Chain of σ1-receptor (Q60492 whole entry): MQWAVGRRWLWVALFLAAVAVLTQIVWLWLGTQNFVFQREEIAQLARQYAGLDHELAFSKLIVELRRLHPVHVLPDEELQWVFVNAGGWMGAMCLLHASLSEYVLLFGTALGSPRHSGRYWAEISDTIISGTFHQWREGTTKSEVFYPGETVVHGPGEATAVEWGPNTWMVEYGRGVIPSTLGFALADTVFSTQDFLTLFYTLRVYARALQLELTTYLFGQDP
Method: In brief the σ1-receptor preparation was prepared from guinea pig brain. The brains were homogenized in 5 to 6 times of volume sucrose solution (0.32M) and homogenized. The homogenate was centrifuged at 2900 rpm, 4° C., 10 min). the supernatant was centrifuged again (23500×g, 4° C., 20 min). The pellet was resuspended in Tris-buffer, incubated for 30 min at room temperature and centrifuged f (23500×g, 4° C., 20 min). The pellet was resuspended in cold TRIS-buffer and homogenized. Then the protein content was measured (approx. 1.5 mg/mL) and the homogenate frozen at −80° C. for later use.
The radioligand used was […]-(+)-Pentazocin in TRIS-buffer. In a volume of 200 μL 50 μL TRIS-buffer, 50 μL compound solution of varying concentration, 50 μL radioligand-solution (8 nM; resulting in 2 nM in the assay) and finally 50 μL of receptor preparation (approx. 1.5 mg/mL) were given into a well of a microplate equipped with a filter. The plate was closed and stirred for 2.5 h at 37° C. and 500 rpm. Following that the solvents were removed by a harvester through the filter. After rinsing with H2O the filter was measured in a scintillation counter ([^3H]-protocol).

σ2-receptor = molecular target: T1, σ2-receptor (Rattus norvegicus, UniProt Q5U3Y7); experiment: Sigma 2 (Version B) radioligand binding, [3H]-ditolylguanidine, rat liver preparation, σ1 sites masked with (+)-pentazocine; conditions: for inhibition at 1 µM: compound at 1 μM; for Ki: [3H]-ditolylguanidine 3 nM
T1 construct: the σ2-Receptorpreparation was prepared from rat liver; from tissue; host or cells: rat liver membrane homogenate
T1 sequence (Q5U3Y7 1-176): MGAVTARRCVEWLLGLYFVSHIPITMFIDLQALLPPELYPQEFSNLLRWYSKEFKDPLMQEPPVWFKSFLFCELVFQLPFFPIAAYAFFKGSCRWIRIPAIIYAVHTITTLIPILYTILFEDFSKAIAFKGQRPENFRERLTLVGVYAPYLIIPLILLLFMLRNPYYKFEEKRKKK
Method: In brief the σ2-Receptorpreparation was prepared from rat liver. The livers were homogenized in 5 to 6 times of volume sucrose solution (0.32M) and homogenized. The homogenate was centrifuged at 2900 rpm, 4° C., 10 min). the supernatant was centrifuged again (31000×g, 4° C., 20 min). The pellet was resuspended in TRIS-buffer, incubated for 30 min at room temperature while stirring and centrifuged f (31000×g, 4° C., 20 min). The pellet was resuspended in cold TRIS-buffer pH 8 and homogenized. Then the protein content was measured (approx. 2 mg/mL) and the homogenate frozen at −80° C. for later use.
The radioligand used was [^3H]-Ditolylguanidin in TRIS-buffer pH 8. The σ1-receptor binding sites were masked through (+)-Pentazocin-solution in TRIS-Puffer pH 8.
In a volume of 200 μL 50 μL compound solution of varying concentration, 50 μL (+)-Pentazocin-solution (2 μM; resulting in 500 nM in the assay), 50 μL radioligand-solution (12 nM; resulting in 3 nM in the assay) and finally 50 μL of receptor preparation (approx. 2 mg/mL) were given into a well of a microplate equipped with a filter. The plate was closed and stirred for 2 h at room temperature and 500 rpm. Following that the solvents were removed by a harvester through the filter. After rinsing with H2O the filter was measured in a scintillation counter ([^3H]-protocol).

| Ki (σ1-receptor; version B, guinea pig brain, [3H]-(+)-pentazocine 2 nM, read-out: Binding σ1 Ki) [nM] | Compound | inhibition at 1 µM (σ2-receptor) [%] | Ki (σ1-receptor) [nM] | Ki (σ2-receptor) [nM] |
| --- | --- | --- | --- | --- |
| 1200 | COC1OC2(CCNCC2)c2cnn(-c3ccccc3)c21 (centres unmarked) [Example 2, 6′-Methoxy-1′-phenyl-4′,6′-dihydro-1′H-spiro[piperidin-4,4′-furo[3,4-c]pyrazole]] | 12 |  |  |
|  | COC1Cc2c(cnn2-c2ccccc2)C2(CCN(Cc3ccccc3)CC2)O1 (centres unmarked) [Example 5, 1-Benzyl-6′-methoxy-1′-phenyl-6′,7′-dihydro-1′H-spiro[piperidin-4,4′-pyrano[4,3-c]pyrazole]] | 22 | 1.46 |  |
|  | CCCN1CCC2(CC1)OC(OC)Cc1c2cnn1-c1ccccc1 (centres unmarked) [Example 7, 6′-Methoxy-1′-phenyl-1-propyl-6′,7′-dihydro-1′H-spiro[piperidin-4,4′-pyrano[4,3-c]pyrazole]] |  |  | 3030 |
|  | CCCCN1CCC2(CC1)OC(OC)Cc1c2cnn1-c1ccccc1 (centres unmarked) [Example 9, 1-Butyl-6′-methoxy-1′-phenyl-6′,7′-dihydro-1′H-spiro[piperidin-4,4′-pyrano[4,3-c]pyrazole]] |  | 8.04 | 752 |
|  | CCCCCN1CCC2(CC1)OC(OC)Cc1c2cnn1-c1ccccc1 (centres unmarked) [Example 11, 6′-Methoxy-1-pentyl-1′-phenyl-6′,7′-dihydro-1′H-spiro[piperidin-4,4′-pyrano[4,3-c]pyrazole]] |  | 0.82 | 340 |
|  | COC1Cc2c(cnn2-c2ccccc2)C2(CCN(CCc3ccccc3)CC2)O1 (centres unmarked) [Example 16, 6′-Methoxy-1′-phenyl-1-(2-phenylethyl)-6′,7′-dihydro-1′H-spiro[piperidin-4,4′-pyrano[4,3-c]pyrazole]] |  | 2.73 | 570 |
|  | COC1Cc2c(cnn2-c2ccccc2)C2(CCN(CCCc3ccccc3)CC2)O1 (centres unmarked) [Example 17, 6′-Methoxy-1′-phenyl-1-(3-phenylpropyl)-6′,7′-dihydro-1′H-spiro[piperidin-4,4′-pyrano[4,3-c]pyrazole]] |  | 3.24 | 833 |
|  | COc1ccc(CN2CCC3(CC2)OC(OC)Cc2c3cnn2-c2ccccc2)cc1 (centres unmarked) [Example 20, 6′-Methoxy-1-(4-methoxybenzyl)-1′-phenyl-6′,7′-dihydro-1′H-spiro[piperidin-4,4′-pyrano[4,3-c]pyrazole]] |  | 1.54 | 925 |
|  | COC1Cc2c(cnn2C)C2(CCN(Cc3ccccc3)CC2)O1 (centres unmarked) [Example 22, 1-Benzyl-6′-methoxy-1′-methyl-6′,7′-dihydro-1′H-spiro[piperidin-4,4′-pyrano[4,3-c]pyrazole]] | 0 | 21.4 |  |
|  | COC1Cc2c(cnn2C)C2(CCN(CCCc3ccccc3)CC2)O1 (centres unmarked) [Example 24, 6′-Methoxy-1′-methyl-1-(3-phenylpropyl)-6′,7′-dihydro-1′H-spiro[piperidin-4,4′-pyrano[4,3-c]pyrazole]] |  | 92.7 | 1730 |
|  | COC1Cc2c(cnn2C)C2(CCN(Cc3ccc(F)cc3)CC2)O1 (centres unmarked) [Example 25, 1-(4-Fluorbenzyl)-6′-methoxy-1′-methyl-6′,7′-dihydro-1′H-spiro[piperidin-4,4′-pyrano[4,3-c]pyrazole]] | 46 | 21.1 |  |
|  | COC1Cc2c(cnn2C)C2(CCN(CCC(C)C)CC2)O1 (centres unmarked) [Example 26, 1-Isopentyl-6′-methoxy-1′-methyl-6′,7′-dihydro-1′H-spiro[piperidin-4,4′-pyrano[4,3-c]pyrazole]] | 22 | 17.8 |  |
|  | CCCN1CCC2(CC1)OC(OC)Cc1c2cnn1C (centres unmarked) [Example 27, 6′-Methoxy-1′-methyl-1-propyl-6′,7′-dihydro-1′H-spiro[piperidin-4,4′-pyrano[4,3-c]pyrazole]] | 0 |  |  |
|  | c1ccc(CCCN2CCC3(CC2)OCCc2c3cnn2-c2ccccc2)cc1 [Example 37, 1-Phenylpropyl-1′-phenyl-6′,7′-dihydro-1′H-spiro[piperidin-4,4′-pyrano[4,3-c]pyrazole]] |  |  | 102 |
|  | CC(C)=CCN1CCC2(CC1)OCCc1c2cnn1C [Example 40, 1-(Methylbut-2-en-1-yl)-1′-methyl-6′,7′-dihydro-1′H-spiro[piperidin-4,4′-pyrano[4,3-c]pyrazole]] | 49 |  |  |
